Data published in the NIST ThermoML archive (doi:10.1016/j.jct.2017.05.001).

Experiment: wn = mass fraction of the nth substance listed
Conditions: Liquid; for mass density: Vibrating tube method

OCCN(CCO)CCO [triethanolamine] + O
mass density [kg/m3]
Conditions | w1 = 0.0992 | w1 = 0.2 | w1 = 0.2991 | w1 = 0.4
333.15 K, 130000 kPa | 1045.8 | 1059 | 1072.9 | 1088.3
333.15 K, 140000 kPa | 1049.1 | 1062.4 | 1076 | 1091.4
353.15 K, 100 kPa | 985.7 | 999.5 | 1013.6 | 1029.7
353.15 K, 500 kPa | 985.7 | 999.6 | 1013.7 | 1029.8
353.15 K, 1000 kPa | 985.9 | 999.8 | 1013.9 | 1030
353.15 K, 2000 kPa | 986.4 | 1000.1 | 1014.3 | 1030.4
353.15 K, 5000 kPa | 987.7 | 1001.5 | 1015.6 | 1031.7
353.15 K, 10000 kPa | 989.9 | 1003.7 | 1017.8 | 1033.9
353.15 K, 15000 kPa | 992.1 | 1005.8 | 1019.9 | 1035.8
353.15 K, 20000 kPa | 994.1 | 1007.8 | 1021.9 | 1037.9
353.15 K, 30000 kPa | 998.2 | 1011.9 | 1025.9 | 1041.9
353.15 K, 40000 kPa | 1002.4 | 1015.9 | 1029.9 | 1045.8
353.15 K, 50000 kPa | 1006.2 | 1019.8 | 1033.8 | 1049.5
353.15 K, 60000 kPa | 1010.2 | 1023.7 | 1037.6 | 1053.3
353.15 K, 70000 kPa | 1014 | 1027.4 | 1041.2 | 1056.9
353.15 K, 80000 kPa | 1017.6 | 1031.1 | 1044.8 | 1060.4
353.15 K, 90000 kPa | 1021.2 | 1034.5 | 1048.3 | 1063.8
353.15 K, 100000 kPa | 1024.8 | 1038.1 | 1051.8 | 1067.2
353.15 K, 110000 kPa | 1028.4 | 1041.5 | 1055.2 | 1070.5
353.15 K, 120000 kPa | 1031.8 | 1044.9 | 1058.5 | 1073.9
353.15 K, 130000 kPa | 1035.2 | 1048.2 | 1061.8 | 1077.1
353.15 K, 140000 kPa | 1038.4 | 1051.5 | 1065 | 1080.1
373.15 K, 100 kPa | 971.7 | 985.1 | 999.2 | 1014.6
373.15 K, 500 kPa | 971.9 | 985.3 | 999.3 | 1014.8
373.15 K, 1000 kPa | 972.2 | 985.5 | 999.6 | 1015
373.15 K, 2000 kPa | 972.6 | 986.1 | 1000.1 | 1015.5
373.15 K, 5000 kPa | 973.9 | 987.4 | 1001.5 | 1016.8
373.15 K, 10000 kPa | 976.3 | 989.7 | 1003.8 | 1019.1
373.15 K, 15000 kPa | 978.5 | 991.9 | 1006 | 1021.2
373.15 K, 20000 kPa | 980.6 | 994 | 1008.2 | 1023.4

viscosity [mPa·s]
Conditions | w1 = 0.0992 | w1 = 0.1 | w1 = 0.2 | w1 = 0.2991 | w1 = 0.3 | w1 = 0.4
353.15 K, 100 kPa, Concentric cylinders viscometry | – | 0.469 | 0.569 | – | 0.81 | 1.125
353.15 K, 100 kPa, Falling or rolling sphere viscometry | 0.4585 | – | 0.5805 | 0.8052 | – | 1.124
353.15 K, 5000 kPa, Falling or rolling sphere viscometry | 0.451 | – | 0.5825 | 0.7994 | – | 1.125
353.15 K, 10000 kPa, Falling or rolling sphere viscometry | 0.4541 | – | 0.5878 | 0.8046 | – | 1.136
353.15 K, 15000 kPa, Falling or rolling sphere viscometry | 0.4547 | – | 0.5898 | 0.811 | – | 1.146
353.15 K, 20000 kPa, Falling or rolling sphere viscometry | 0.4578 | – | 0.5937 | 0.8144 | – | 1.154
353.15 K, 25000 kPa, Falling or rolling sphere viscometry | 0.4595 | – | 0.5975 | 0.821 | – | 1.164
353.15 K, 30000 kPa, Falling or rolling sphere viscometry | 0.4619 | – | 0.6006 | 0.8266 | – | 1.173
353.15 K, 40000 kPa, Falling or rolling sphere viscometry | 0.466 | – | 0.6068 | 0.8374 | – | 1.193
353.15 K, 60000 kPa, Falling or rolling sphere viscometry | 0.4738 | – | 0.6185 | 0.8576 | – | 1.229
353.15 K, 80000 kPa, Falling or rolling sphere viscometry | 0.4813 | – | 0.6313 | 0.8785 | – | 1.266
353.15 K, 100000 kPa, Falling or rolling sphere viscometry | 0.4891 | – | 0.6459 | 0.9019 | – | 1.306
373.15 K, 5000 kPa, Falling or rolling sphere viscometry | 0.3584 | – | 0.444 | 0.5867 | – | 0.7909
373.15 K, 10000 kPa, Falling or rolling sphere viscometry | 0.356 | – | 0.4475 | 0.5894 | – | 0.8001
373.15 K, 15000 kPa, Falling or rolling sphere viscometry | 0.3581 | – | 0.451 | 0.5951 | – | 0.809
373.15 K, 20000 kPa, Falling or rolling sphere viscometry | 0.3595 | – | 0.4534 | 0.5996 | – | 0.819
373.15 K, 25000 kPa, Falling or rolling sphere viscometry | 0.3618 | – | 0.4562 | 0.6046 | – | 0.8242
